Reference: US8987449B2, “Medicine for treating ischemic brain injury and its sequelae, and preparation method thereof” (Haimin Lei, priority 2011, dated 2015)

Assays:
MDA = MDA of MCAO rats (brain homogenate, kit); format: in vivo, rat; conditions: model group 14.53 ± 3.29
Experimental: 10% chloral hydrate 0.35 g/kg was injected into the abdominal cavity of a rat to anesthetize thereof. The rat was fixed as supine position. The skin was disinfected thereof by 75% medical alcohol. It was cut right in the middle of the neck. The right common carotid artery, internal carotid artery and external carotid artery were separated and the common carotid artery and external carotid artery were ligated. The internal carotid artery was clamped with a bulldog clamp. A cut was made at the crotch of the external carotid artery and the internal carotid artery followed by releasing the bulldog clamp. The nylon wire (diameter 0.25 mm, marked at a distance of 18 mm from the head end) was inserted into the cut and the insertion was stopped when some resistance was felt. The insert depth was a little longer than 18 mm to achieve the cerebral ischemia caused by middle cerebral artery occlusion. The internal carotid artery was ligated and the nylon wire was fixed. The muscle and skin were sutured layer by layer. In sham operation group, the right common carotid artery, the external carotid artery and the internal carotid artery were only exposed and separated. The rats were conventionally raised in different cages regularly. 0.5 ml penicillin was continuously injected into every rat for three days after the surgery.
The rats were divided into 7 groups in the experiment, that is, sham operation group, model group, Nimodipine group, LQC-T4 large dosage group, LQC-T4 small dosage group, TMP group, and TMP+Vanillic acid group. The model rats getting 1 point were distributed randomly into the model group and other administration group, while the rats getting 2 point and 3 point were distributed randomly into above 6 groups according the above method and sham operation group was not involved in the above grouping. 0.5% CMC-NA (1 ml·100 g^−1) was administrated intragastrically to the blank control group and the model group, two dosage group of 120 mg·kg^−1, 60 mg·kg^−1 were administrated intragastrically to the LQC-T4 (1 ml·100 g^−1) group, and 74 mg·kg^−1 TMP+46 mg·kg^−1 vanillitc acid (1 ml·100 g^−1) were administrated intragastrically, once per day continuously for 10 days.
10% chloral hydrate 0.35 g/kg was injected into the abdominal cavity to anesthetize them after the rats were administrated for 10 days. The head was cut and the brain was taken. The cranial bones were stripped, the meninges were peeled off to separate the ischemia side of the brain, the blood streak was striped and then the brain was weighed. 4 times amount of 0.9 physiological saline was added and the brain was homogenized in 0° C. ice bath. […]
It was detected with 722 type visible spectrophotometer according to the kit operation. […]

[1] = tested on: rat cortex neurons after cerebral ischemia; assay: Brain histopathologic morphology after cerebral ischemia (HE staining of cortex); format: in vivo; conditions: MCAO rats, compared with model group
Experimental: The same as effect example 4
10% chloral hydrate (0.35 g/kg) was injected into the abdominal cavity of a rat to anesthetize thereof. The thoracic cavity was cut to expose the heart fully. It was intubated through left ventricle. Firstly, it was washed with 37[…] saline solution 300 ml and perfused with pre-cooled 4% paraformaldehyde phosphate buffer solution (pH 7.2). When the rat was adequately fixed and the body was stiff, the head was cut and the brain was taken rapidly. And the brain was dipped into 4% paraformaldehyde solution and fixed for 24 h. Next, it was put into tissue vacuum hydroextractor, was dehydrated with gradient ethanol, made transparent with xylene, and imbedded into paraffin. 3-5 examples were taken for each group. And then 3 mm-4 mm tissue block from chiasma opticum towards caudal end at coronal position was taken, wherein the thickness of brain slice was 3 μm.
The rat cortex damage after cerebral ischemia and the effect of the medicine were observed through HE staining.

VEGF = VEGF expression in the cortex infarction zone (immunohistochemistry SP two-step method); format: in vivo, rat; conditions: MCAO rats, vs model group
[2] = tested on: rat primary cortical neurons; assay: Proliferation of primary neuronal cells by MTT and morphology observation; format: cell-based; conditions: for MTT(A540), 24 h after the administration: normal neurons, control 0.7567 ± 0.1109
Experimental: SD pregnant rats: pregnant for 16-18 d, certificate number: SCXK (Jing) 2006-0009, provided by BeiJing Vital River Laboratories.
LQC-T4 (prepared by the method of example 5), the purity was ≧98%, determined by high performance liquid chromatography (HPLC), which met the requirement of the experiment. The powder was carefully sealed and preserved at 4° C. The prepared LQC-T4 was dissolved using dimethyl sulfoxide and made into […] storing liquid for use.
Referring to the document [HongQingtao, TangYipeng, Neurons of cerebral cortex of newborn rats in in vitro primary culture, Chinese Journal of Neuroanatomy, 1994, 10(3):259-262], the pregnant 16-18 d SD rat was executed by dislocation. The fetal rat was taken out in an aseptic environment, the meninges and blood steak were stripped, the cortex was separated and cut into 1 mm^3 tissue block (all carried out on ice). The tissue block was digested at 37[…] with 0.1% pancreatic enzyme-0.02% EDTA for 20 min. Digesting was stopped using DMEM containing fetal calf serum and the number of the cells was adjusted to 5×10^5 cells ml^−1. The resultant cells were inoculated into a 96 well plate treated by 0.001% polylysine and the plate was put in a 37° C. 5% CO2 incubation box to be cultured. The cultivation liquid was changed (totally) after 48 h and add adenine arabinoside was added (final concentration is 5 μM) to inhibit the excessive proliferation of non-neurons. The cultivation liquid was changed after 48 h with fresh cultivation liquid and culture was continued. And the cultivation liquid was changed every 3 days afterward.
The cultivation liquid was sucked away on the eighth day of neuron culture. DMEM culture-medium containing 0.15% DMSO was added to the blank group, while 60 μM, 30 μM, 15 μM LQC-T4, 60 μM tetramethylpyrazine and 60 μM vanillic acid were respectively added to the administration group. Ten parallel wells were set as a group. And they were put into a 37° C., 5% CO2 incubation box to continue culturing for 24 h.
5 mg/ml MTT 20 μl was added to each well at the time of 4 h before the experiment ended and the cultivation liquid was sucked away. DMSO 200 μl was added to each well. When the purple particles were completely dissolved, the enzyme-linked immune assay was used to measure the optical density at 540 nm.
The SAS 8.2 statistical software was used to carry out the one-way ANOVA variance analysis and the difference among the groups were compared by t-test.

Compound	MDA (MDA; 60 mg/kg intragastrically once per day for 10 days)	MDA (MDA; 120 mg/kg intragastrically once per day for 10 days)	remaining of the complete neuron of the rat cortex after cerebral ischemia (HE staining) ([1]; 60 mg/kg)	remaining of the complete neuron of the rat cortex after cerebral ischemia (HE staining) ([1]; 120 mg/kg)	VEGF expression in the rat cerebral infarction zone (VEGF; 60 mg/kg small dosage group)	VEGF expression in the rat cerebral infarction zone (VEGF; 120 mg/kg large dosage group)	MTT(A540), 24 h after the administration ([2]; 15 μM)	MTT(A540), 24 h after the administration ([2]; 30 μM)	MTT(A540), 24 h after the administration ([2]; 60 μM)	promoting effect on the growth of normal neurons ([2]; 24 h after the administration, P>0.05, result in words)	morphology observation of primary neuronal cells ([2]; phase contrast microscope, vs normal group)	MDA (MDA; 30 mg/kg once per day for 10 days)	MDA (MDA; 37 mg/kg once per day for 10 days)	remaining of the complete neuron of the rat cortex after cerebral ischemia (HE staining) ([1]; TMP group)	VEGF expression in the rat cerebral infarction zone (VEGF; TMP group)
COc1cc(C(=O)OCc2nc(C)c(C)nc2C)ccc1OCc1nc(C)c(C)nc1C [LQC-T4, (3,5,6-trimethylpyrazine-2-yl)methyl 3-methoxy-4-((3,5,6-trimethylpyrazine-2-yl)methoxy) benzoate]	14.32 ± 6.31	11.08 ± 4.53	a larger amount of neurons which were distinct and complete in structure	a larger amount of neurons which were distinct and complete in structure	more than that of the model group	more than that of the model group	0.9175 ± 0.2300	0.9114 ± 0.1599	0.8106 ± 0.2415	greater than that of the tetramethylpyrazine group and the vanillic acid group	more prosperous in growth and their protrusions formed a network	–	–	–	–
COCCOC(=O)C1=C(C)NC(C)=C(C(=O)OC(C)C)C1c1cccc([N+](=O)[O-])c1 (stereo not shown) [Nimodipine, reference compound]	–	–	–	–	–	–	–	–	–	–	–	13.70 ± 6.56	–	–	–
Cc1nc(C)c(C)nc1C [TMP, tetramethylpyrazine, reference compound]	–	–	–	–	–	–	–	–	0.8710 ± 0.1350	–	–	–	13.27 ± 3.96	a lower level of damage compared with the model group	more than that of the model group
